We go through 21 compounds from PubChem BioAssay AID230 (DTP/NCI, 2004).

Values joined by “and” are separate entries in the source; they are usually repeats but may differ in a detail not shown here. Identical values can stand only once. Inconclusive results and toxic doses are left out.

The subject of the experiment is C3H/He mice, Gardner lymphosarcoma 6C3HED ip, survival T/C. The experiment in a line: NCI In Vivo Anticancer Drug Screen. Data for tumor model Lymphosarcoma Gardner 6C3HED (intraperitoneal) in C3H/He mice. The following applies: higher = longer survival. As to the method:
The antitumor activity of compounds was measured in mice bearing transplantable tumors. Survival or tumor size were measured and the results are expressed as the measurement made in the treated group (T) divided by the measurement made in the vehicle treated control group (C). The tumor model used in this assay is Lymphosarcoma Gardner 6C3HED (intraperitoneal) in C3H/He mice

Where [1] appears, read: endpoint: survival time, mean or median, dose: 32.0 mg/kg/injection, schedule: Q01DX010 (ip), vehicle: saline.
The mark [2] stands for this setting: endpoint: survival time, mean or median, dose: 4.0 mg/kg/injection, schedule: Q01DX010 (ip), vehicle: saline.
The mark [3] stands for this setting: endpoint: survival time, mean or median, dose: 8.0 mg/kg/injection, schedule: Q01DX010 (ip), vehicle: saline.
[4] abbreviates: endpoint: survival time, mean or median, dose: 31.3 mg/kg/injection, schedule: Q01DX010 (ip), vehicle: saline.
The mark [5] stands for this setting: endpoint: survival time, mean or median, dose: 62.5 mg/kg/injection, schedule: Q01DX010 (ip), vehicle: saline.
Where [6] appears, read: endpoint: survival time, mean or median, dose: 125.0 mg/kg/injection, schedule: Q01DX010 (ip), vehicle: saline.
Where [7] appears, read: endpoint: survival time, mean or median, dose: 20.0 mg/kg/injection, schedule: Q01DX010 (ip), vehicle: saline.
[8] abbreviates: endpoint: survival time, mean or median, dose: 25.0 mg/kg/injection, schedule: Q01DX010 (ip), vehicle: saline.
[9] abbreviates: endpoint: survival time, mean or median, dose: 50.0 mg/kg/injection, schedule: Q01DX010 (ip), vehicle: saline.
[10] abbreviates: endpoint: survival time, mean or median, dose: 15.0 mg/kg/injection, schedule: Q01DX010 (ip), vehicle: saline.
[11] abbreviates: endpoint: median survival time, dose: 100.0 mg/kg/injection, schedule: Q01DX005 (ip), vehicle: water.
[12] abbreviates: endpoint: median survival time, dose: 200.0 mg/kg/injection, schedule: Q01DX005 (ip), vehicle: water.
[13] abbreviates: endpoint: median survival time, dose: 400.0 mg/kg/injection, schedule: Q01DX005 (ip), vehicle: water.
[14] abbreviates: endpoint: median survival time, dose: 800.0 mg/kg/injection, schedule: Q01DX005 (ip), vehicle: water.

Regarding `CO[C@H](C(=O)[C@@H](O)[C@@H](C)O)[C@@H]1Cc2cc3cc(OC4CC(OC5CC(O)C(O)C(C)O5)C(O)C(C)O4)c(C)c(O)c3c(O)c2C(=O)[C@H]1OC1CC(OC2CC(OC3CC(C)(O)C(O)C(C)O3)C(O)C(C)O2)C(O)C(C)O1` (stereo partly drawn), the T/C reads like this: (endpoint: survival time, mean or median, dose: 0.13 mg/kg/injection, schedule: Q01DX010 (ip), vehicle: saline) 111 % of control; (endpoint: survival time, mean or median, dose: 0.25 mg/kg/injection, schedule: Q01DX010 (ip), vehicle: saline) 123 % of control; (endpoint: survival time, mean or median, dose: 1.0 mg/kg/injection, schedule: Q01DX010 (ip), vehicle: saline) 300 % of control; (endpoint: survival time, mean or median, dose: 2.0 mg/kg/injection, schedule: Q01DX010 (ip), vehicle: saline) 188 % of control.
With `COc1ccc(/C=N/NC(N)=S)cc1`, the T/C is 96 % of control under setting [1]; 92 % of control (endpoint: survival time, mean or median, dose: 64.0 mg/kg/injection, schedule: Q01DX010 (ip), vehicle: saline); 100 % of control (endpoint: survival time, mean or median, dose: 128.0 mg/kg/injection, schedule: Q01DX010 (ip), vehicle: saline); 96 % of control (endpoint: survival time, mean or median, dose: 256.0 mg/kg/injection, schedule: Q01DX010 (ip), vehicle: saline).
`CCCCNc1ncnc2c1cnn2C`: the T/C is, setting by setting: under setting [2], 90 % of control and 100 % of control; under setting [3], 95 % of control and 100 % of control; (endpoint: survival time, mean or median, dose: 16.0 mg/kg/injection, schedule: Q01DX010 (ip), vehicle: saline) 90 % of control and 100 % of control; under setting [1], 90 % of control and 100 % of control.
With `O=c1[nH]c(=O)n(C2CC(O)C(CO)O2)cc1C(F)(F)F` (stereo not drawn), the T/C under setting [4] was 119 % of control, the T/C under setting [5] is 119 % of control and the T/C under setting [6] was 100 % of control.
Turning to `OCCOCCN1CCN(CCCN2c3ccccc3Sc3ccc(C(F)(F)F)cc32)CC1`, the T/C is 90 % of control (endpoint: survival time, mean or median, dose: 5.0 mg/kg/injection, schedule: Q01DX010 (ip), vehicle: saline) and 90 % of control under setting [7].
With `Nc1nc(=O)n(C2CC(O)C(CO)O2)cc1Br` (stereo not drawn), the T/C is, setting by setting: under setting [8], 107 % of control; under setting [9], 107 % of control; (endpoint: survival time, mean or median, dose: 100.0 mg/kg/injection, schedule: Q01DX010 (ip), vehicle: saline) 96 % of control and 107 % of control; (endpoint: survival time, mean or median, dose: 200.0 mg/kg/injection, schedule: Q01DX010 (ip), vehicle: saline) 100 % of control and 107 % of control.
As for `CC(CCC(C)OS(C)(=O)=O)OS(C)(=O)=O` (stereo not drawn), the T/C is, setting by setting: under setting [2], 86 % of control; under setting [3], 100 % of control.
Take `COc1ccc2c(c1OC)C(=O)O[C@@H]2[C@H]1c2c(cc3c(c2OC)OCO3)CCN1C`: the T/C reads like this: under setting [4], 90 % of control and 107 % of control; under setting [5], 100 % of control; under setting [6], 92 % of control.
Regarding `CN(C)[C@@H]1C(=O)C(C(N)=O)=C(O)[C@@]2(O)C(=O)C3=C(O)c4c(O)cccc4C[C@H]3C[C@@H]12`, the T/C is, setting by setting: (endpoint: survival time, mean or median, dose: 3.75 mg/kg/injection, schedule: Q01DX010 (ip), vehicle: saline) 93 % of control; (endpoint: survival time, mean or median, dose: 7.5 mg/kg/injection, schedule: Q01DX010 (ip), vehicle: saline) 90 % of control; under setting [10], 90 % of control.
Consider `NC(CC(=O)O)C(=O)O` (stereo not drawn), for which the T/C was 88 % of control (endpoint: median survival time, dose: 50.0 mg/kg/injection, schedule: Q01DX005 (ip), vehicle: water); 92 % of control under setting [11]; 92 % of control under setting [12].
Regarding `C[N+](C)(C)c1ncnc2nc[nH]c12`, the T/C under setting [10] was 92 % of control and the T/C (endpoint: survival time, mean or median, dose: 30.0 mg/kg/injection, schedule: Q01DX010 (ip), vehicle: saline) was 96 % of control.
Regarding `NC(CC(=O)NO)C(=O)O` (stereo not drawn), the T/C by setting is: under setting [11], 96 % of control; under setting [12], 107 % of control; under setting [13], 115 % of control; under setting [14], 111 % of control.
Regarding `CC[C@@H](c1ccc(O)cc1)[C@@H](CC)c1ccc(O)cc1`, the T/C reads like this: (endpoint: survival time, mean or median, dose: 25.0 mg/kg/injection, schedule: Q01DX010 (sc), vehicle: water) 96 % of control; (endpoint: survival time, mean or median, dose: 50.0 mg/kg/injection, schedule: Q01DX010 (sc), vehicle: water) 93 % of control; (endpoint: survival time, mean or median, dose: 100.0 mg/kg/injection, schedule: Q01DX010 (sc), vehicle: water) 93 % of control.
As for `N=C(N)c1ccc(Nc2ccc(C(=N)N)cc2)cc1`, the T/C is, setting by setting: (endpoint: survival time, mean or median, dose: 0.75 mg/kg/injection, schedule: Q01DX010 (ip), vehicle: saline) 103 % of control; (endpoint: survival time, mean or median, dose: 1.5 mg/kg/injection, schedule: Q01DX010 (ip), vehicle: saline) 119 % of control; (endpoint: survival time, mean or median, dose: 3.0 mg/kg/injection, schedule: Q01DX010 (ip), vehicle: saline) 107 % of control; (endpoint: survival time, mean or median, dose: 6.0 mg/kg/injection, schedule: Q01DX010 (ip), vehicle: saline) 100 % of control and 103 % of control; (endpoint: survival time, mean or median, dose: 12.0 mg/kg/injection, schedule: Q01DX010 (ip), vehicle: saline) 89 % of control; (endpoint: survival time, mean or median, dose: 24.0 mg/kg/injection, schedule: Q01DX010 (ip), vehicle: saline) 96 % of control.
Turning to `NCC(=O)O`, the T/C (endpoint: median survival time, dose: 187.5 mg/kg/injection, schedule: Q04HX020 (ip), vehicle: saline) is 88 % of control; the T/C (endpoint: median survival time, dose: 187.5 mg/kg/injection, schedule: Q06HX020 (ip), vehicle: saline) is 89 % of control; the T/C (endpoint: median survival time, dose: 375.0 mg/kg/injection, schedule: Q04HX020 (ip), vehicle: saline) was 88 % of control; the T/C (endpoint: median survival time, dose: 375.0 mg/kg/injection, schedule: Q06HX020 (ip), vehicle: saline) is 89 % of control; the T/C (endpoint: median survival time, dose: 750.0 mg/kg/injection, schedule: Q04HX020 (ip), vehicle: saline) was 92 % of control; the T/C (endpoint: median survival time, dose: 750.0 mg/kg/injection, schedule: Q06HX020 (ip), vehicle: saline) is 93 % of control. Further, the T/C (endpoint: median survival time, dose: 1500.0 mg/kg/injection, schedule: Q06HX020 (ip), vehicle: saline) is 69 % of control.
As to `CN(C)CC(=O)c1ccc(O)c(O)c1`, the T/C was 180 % of control (endpoint: survival time, mean or median, dose: 300.0 mg/kg/injection, schedule: Q01DX010 (ip), vehicle: saline) and 106 % of control (endpoint: survival time, mean or median, dose: 675.0 mg/kg/injection, schedule: Q01DX010 (ip), vehicle: saline).
On to `CS(=O)(=O)OCCC(=O)N1CCN(C(=O)CCOS(C)(=O)=O)CC1`, for which, under setting [9], the T/C is 207 % of control and 267 % of control.
`Cn1c(N)nc2nc[nH]c2c1=S`: the T/C (endpoint: survival time, mean or median, dose: 10.0 mg/kg/injection, schedule: Q01DX010 (ip), vehicle: saline) is 96 % of control and 103 % of control; the T/C under setting [7] is 96 % of control and 107 % of control; the T/C (endpoint: survival time, mean or median, dose: 40.0 mg/kg/injection, schedule: Q01DX010 (ip), vehicle: saline) is 100 % of control and 107 % of control; the T/C (endpoint: survival time, mean or median, dose: 80.0 mg/kg/injection, schedule: Q01DX010 (ip), vehicle: saline) was 96 % of control.
On to `Nc1nc2n[nH]nc2c(=O)[nH]1`, for which the T/C is 109 % of control (endpoint: survival time, mean or median, dose: 25.0 mg/kg/injection, schedule: Q01DX010 (ip), vehicle: alkali diluted with saline); 115 % of control and 118 % of control (endpoint: survival time, mean or median, dose: 50.0 mg/kg/injection, schedule: Q01DX010 (ip), vehicle: alkali diluted with saline); 120 % of control (endpoint: survival time, mean or median, dose: 100.0 mg/kg/injection, schedule: Q01DX010 (ip), vehicle: alkali diluted with saline); 100 % of control (endpoint: survival time, mean or median, dose: 200.0 mg/kg/injection, schedule: Q01DX010 (ip), vehicle: alkali diluted with saline).
Consider `C[C@H]1C(=O)O[C@@H]2CCN3CC=C(COC(=O)[C@](C)(O)[C@@]1(C)O)[C@H]23`, for which the T/C by setting is: (endpoint: survival time, mean or median, dose: 3.13 mg/kg/injection, schedule: Q01DX010 (ip), vehicle: saline) 100 % of control and 107 % of control; (endpoint: survival time, mean or median, dose: 6.25 mg/kg/injection, schedule: Q01DX010 (ip), vehicle: saline) 93 % of control and 103 % of control; (endpoint: survival time, mean or median, dose: 12.5 mg/kg/injection, schedule: Q01DX010 (ip), vehicle: saline) 100 % of control and 103 % of control; under setting [8], 111 % of control.
`NC(=O)CC(N)C(=O)O` (stereo not drawn): the T/C was 92 % of control under setting [11], 100 % of control under setting [12], 92 % of control under setting [13] and 92 % of control under setting [14].
